Data taken from paper PMC8253220, “Molecular design, synthesis and in vitro biological evaluation of thienopyrimidine–hydroxamic acids as chimeric kinase HDAC inhibitors: a challenging approach to combat cancer” (Journal of Enzyme Inhibition and Medicinal Chemistry, 2021).
Values joined by “and” are separate entries in the source; they are usually repeats but may differ in a detail not shown here. Equal values may be shown once.

What was measured:
[1] = biological target: T1, HDAC6 (Homo sapiens, UniProt Q9UBN7); assay: In vitro HDAC6 inhibitory assay (BPS Bioscience, fluorogenic); format: biochemical; conditions: 10 µM
T1 construct: purchased BPS Bioscience 50006
T1 sequence (Q9UBN7 1-1215): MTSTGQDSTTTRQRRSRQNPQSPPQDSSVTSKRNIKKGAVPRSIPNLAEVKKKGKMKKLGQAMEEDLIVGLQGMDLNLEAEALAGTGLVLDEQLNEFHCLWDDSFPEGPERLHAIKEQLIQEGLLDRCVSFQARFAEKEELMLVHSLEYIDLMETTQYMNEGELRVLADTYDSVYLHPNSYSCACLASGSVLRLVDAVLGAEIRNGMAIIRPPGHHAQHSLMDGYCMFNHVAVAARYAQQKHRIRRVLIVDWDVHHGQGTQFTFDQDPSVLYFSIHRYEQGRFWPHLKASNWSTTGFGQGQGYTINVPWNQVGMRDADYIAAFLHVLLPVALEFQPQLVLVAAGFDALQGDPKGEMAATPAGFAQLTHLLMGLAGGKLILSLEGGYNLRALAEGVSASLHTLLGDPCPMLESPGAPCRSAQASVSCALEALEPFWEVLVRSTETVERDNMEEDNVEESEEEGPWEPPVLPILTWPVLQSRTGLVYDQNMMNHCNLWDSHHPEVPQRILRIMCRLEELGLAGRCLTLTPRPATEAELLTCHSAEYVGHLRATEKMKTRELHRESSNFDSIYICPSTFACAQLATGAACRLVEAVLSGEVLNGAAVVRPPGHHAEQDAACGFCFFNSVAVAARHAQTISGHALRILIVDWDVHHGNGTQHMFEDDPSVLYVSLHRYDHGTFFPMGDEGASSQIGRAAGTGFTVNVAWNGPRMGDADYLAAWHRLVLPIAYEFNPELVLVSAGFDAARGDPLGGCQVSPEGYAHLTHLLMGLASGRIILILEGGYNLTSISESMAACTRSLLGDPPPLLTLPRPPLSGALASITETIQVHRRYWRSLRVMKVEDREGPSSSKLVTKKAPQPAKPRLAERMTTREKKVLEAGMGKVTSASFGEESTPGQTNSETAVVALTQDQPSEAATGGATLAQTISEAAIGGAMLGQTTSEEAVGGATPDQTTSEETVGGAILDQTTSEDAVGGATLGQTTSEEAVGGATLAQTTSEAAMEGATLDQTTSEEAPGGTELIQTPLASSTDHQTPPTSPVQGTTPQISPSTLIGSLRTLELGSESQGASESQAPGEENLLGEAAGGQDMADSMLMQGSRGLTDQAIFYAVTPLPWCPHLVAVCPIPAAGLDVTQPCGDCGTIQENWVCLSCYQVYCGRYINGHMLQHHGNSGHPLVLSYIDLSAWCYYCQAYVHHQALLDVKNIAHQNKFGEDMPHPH
Experimental: (1 picture or pasted object on this page, not shown here)
HDAC activity assays were performed in duplicates at each concentration. The

[2] = test system: BT-549; assay: NCI one-dose screen; format: cell-based, human; conditions: Breast BT-549, 10 µM single dose
Method in brief: (§1)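 At 10 μM, a single concentration, compounds were evaluated for antiproliferative effect in the NCI 60-line screen, with growth expressed relative to untreated control cells.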

[3] = test system: HCT-15; assay: NCI one-dose screen; format: cell-based, human; conditions: Colon HCT-15, 10 µM single dose
Method in brief: as §1

[4] = test system: HOP-92; assay: NCI one-dose screen; format: cell-based, human; conditions: NSCLC HOP-92, 10 µM single dose
Method in brief: as §1

[5] = test system: K-562; assay: NCI one-dose screen; format: cell-based, human; conditions: Leukemia K-562, 10 µM single dose
Method in brief: as §1

[6] = test system: KM12; assay: NCI one-dose screen; format: cell-based, human; conditions: Colon KM12, 10 µM single dose
Method in brief: (§2)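 Following the standard NCI-60 protocol, compounds were applied once at 10 μM to all 60 cancer lines. Read-out is percent growth versus untreated controls, expressed as inhibition %.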

[7] = test system: MOLT-4; assay: NCI one-dose screen; format: cell-based, human; conditions: Leukemia MOLT-4, 10 µM single dose
Method in brief: as §2

[8] = test system: NCI-H23; assay: NCI one-dose screen; format: cell-based, human; conditions: NSCLC NCI-H23, 10 µM single dose
Method in brief: as §2

[9] = test system: OVCAR-3; assay: NCI one-dose screen; format: cell-based, human; conditions: Ovarian OVCAR-3, 10 µM single dose
Method in brief: as §1

[10] = test system: PC-3; assay: NCI one-dose screen; format: cell-based, human; conditions: Prostate PC-3, 10 µM single dose
Method in brief: as §2

[11] = test system: SK-MEL-28; assay: NCI one-dose screen; format: cell-based, human; conditions: Melanoma SK-MEL-28, 10 µM single dose
Method in brief: as §2

[12] = test system: T-47D; assay: NCI one-dose screen; format: cell-based, human; conditions: Breast T-47D, 10 µM single dose
Method in brief: as §1

[13] = test system: UACC-62; assay: NCI one-dose screen; format: cell-based, human; conditions: Melanoma UACC-62, 10 µM single dose
Method in brief: as §1

[14] = test system: full NCI 60 cell panel; assay: NCI one-dose screen, whole panel statistics; format: cell-based, human; conditions: 1.00E-5 Molar
Method in brief: as §2

SMILES: Cc1c(C(=O)NCCCC(=O)NO)sc2ncnc(Nc3ccc(F)c(Cl)c3)c12 [Compound 20d, 4–(3-chloro-4-fluorophenylamino)-N-(4-(hydroxyamino)-4-oxobutyl)-5-methylthieno[2,3-d]pyrimidine-6-carboxamide]
- Mean % inhibition HDAC6 [1]: 9%
- Growth Percent [2]: 117.9% and 117.96%
- Growth Percent [3]: 99.6% and 99.67%
- Growth Percent [4]: 118.7% and 118.75%
- Growth Percent [5]: 117.4% and 117.47%
- Growth Percent [6]: 101.5% and 101.54%
- Growth Percent [7]: 109.8% and 109.84%
- Growth Percent [8]: 98.9% and 98.94%
- Growth Percent [9]: 108.4% and 108.42%
- Growth Percent [10]: 105.3% and 105.36%
- Growth Percent [11]: 111.4% and 111.42%
- Growth Percent [12]: 112.6% and 112.64%
- Growth Percent [13]: 93.7% and 93.74%
- Delta (one dose mean graph) [14]: 26.89%
- Range (one dose mean graph) [14]: 47.82%
- Mean Growth Percent ([14]; mean over panel): 103.21%
